According to patent US20190292179A1 (BRISTOL-MYERS SQUIBB COMPANY, priority 2016, published 2019):

Target: T1, HIS-TGFβR1 T204D (Homo sapiens, UniProt P36897, T204D)
T1 sequence (P36897 34-503 T204D): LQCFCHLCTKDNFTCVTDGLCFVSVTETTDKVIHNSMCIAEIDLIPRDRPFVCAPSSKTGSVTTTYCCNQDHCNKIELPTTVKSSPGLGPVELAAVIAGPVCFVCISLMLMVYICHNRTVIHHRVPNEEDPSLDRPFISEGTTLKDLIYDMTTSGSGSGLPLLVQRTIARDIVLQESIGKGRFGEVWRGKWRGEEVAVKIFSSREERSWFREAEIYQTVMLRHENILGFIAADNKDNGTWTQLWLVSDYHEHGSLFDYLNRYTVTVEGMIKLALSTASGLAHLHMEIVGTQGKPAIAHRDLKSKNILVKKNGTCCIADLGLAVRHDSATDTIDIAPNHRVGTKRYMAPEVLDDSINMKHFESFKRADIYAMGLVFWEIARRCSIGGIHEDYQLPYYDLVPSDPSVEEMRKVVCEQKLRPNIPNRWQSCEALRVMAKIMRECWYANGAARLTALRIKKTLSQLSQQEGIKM
Assay: HTRF probe-displacement assay with HIS-TGFβR1 T204D
Format: binding
Conditions: 1 nM HIS-TGFβR1 T204D, labeled probe at Kd, 1 hour at room temperature
Description: The reaction is incubated for 1 hour at room temperature and the HTRF signal was measured on an Envision plate reader (Ex: 340 nm; Em: 520 nm/495 nm). Inhibition data were calculated by comparison to no enzyme control reactions for 100% inhibition and vehicle-only reactions for 0% inhibition. The final concentration of reagents in the assay are 1 nM HIS-TGFβR1 T204D or HIS-TGFβR2 WT, 0.2 nM anti-HIS detection antibody, labeled small molecule probe (at Kd) and 0.5% DMSO. Dose response curves were generated to determine the concentration required inhibiting 50% of kinase activity (IC50). Compounds were dissolved at 10 mM in dimethylsulfoxide (DMSO) and evaluated at eleven concentrations. IC50 values were derived by non-linear regression analysis.

| Compound | IC50 [µM] |
| --- | --- |
| N#Cc1cnc2ccc(-c3c[nH]nc3-c3cccc(C(F)(F)F)n3)cn12 [Example 1, 6-(3-(6-(trifluoromethyl)pyridin-2-yl)-1H-pyrazol-4-yl)imidazo[1,2-a]pyridine-3-carbonitrile] | 0.001 |
| FC(F)(F)c1cccc(-c2n[nH]cc2-c2ccc3nccn3c2)n1 [Example 3, 6-(3-(6-(trifluoromethyl)pyridin-2-yl)-1H-pyrazol-4-yl)imidazo[1,2-a]pyridine] | 0.001 |
| N#Cc1cnc2ccc(-c3cn(CC(F)F)nc3-c3cccc(C(F)(F)F)n3)cn12 [Example 7, 6-(1-(2,2-difluoroethyl)-3-(6-(trifluoromethyl)pyridin-2-yl)-1H-pyrazol-4-yl)imidazo[1,2-a]pyridine-3-carbonitrile] | 0.008 |
| NC(=O)c1cnc2ccc(-c3cn(CC(F)F)nc3-c3cccc(C(F)(F)F)n3)cn12 [Example 8, 6-(1-(2,2-difluoroethyl)-3-(6-(trifluoromethyl)pyridin-2-yl)-1H-pyrazol-4-yl)imidazo[1,2-a]pyridine-3-carboxamide] | 0.006 |
| Cn1cc(-c2ccc3ncc(C#N)n3c2)c(-c2cccc(C(F)(F)F)n2)n1 [Example 9, 6-(1-methyl-3-(6-(trifluoromethyl)pyridin-2-yl)-1H-pyrazol-4-yl)imidazo[1,2-a]pyridine-3-carbonitrile] | 0.024 |
| O=C(Nc1cnc2ccc(-c3c[nH]nc3-c3ccc(F)cc3)cn12)C(F)(F)F [Example 16, 2,2,2-trifluoro-N-(6-(3-(4-fluorophenyl)-1H-pyrazol-4-yl)imidazo[1,2-a]pyridin-3-yl)acetamide] | 0.187 |
| Nc1cc(-c2c[nH]nc2-c2ccc(F)cc2)cn2ccnc12 [Example 32, 6-(3-(4-fluorophenyl)-1H-pyrazol-4-yl)imidazo[1,2-a]pyridin-8-amine] | 0.465 |
| Cc1cccc(-c2nn(C)cc2-c2ccc3ncc(C(C)(C)O)n3c2)n1 [Example 52] | 0.007 |
| Cc1cccc(-c2nn(C)cc2-c2ccc3ncc(NC(C)(C)C)n3c2)n1 [Example 53, N-(tert-butyl)-6-(1-methyl-3-(6-methylpyridin-2-yl)-1H-pyrazol-4-yl)imidazo[1,2-a]pyridin-3-amine] | 0.03 |
| Cc1cccc(-c2nn(C)cc2-c2ccc3ncc(NC(=O)C(F)(F)F)n3c2)n1 [Example 54] | 0.079 |
| CC(=O)Nc1cnc2ccc(-c3c[nH]nc3-c3ccc(F)cc3)nn12 [Example 58, N-(6-(3-(4-fluorophenyl)-1H-pyrazol-4-yl)imidazo[1,2-b]pyridazin-3-yl)acetamide] | 0.025 |
| O=C(O)c1cnc2ccc(-c3c[nH]nc3-c3ccc(F)cc3)cn12 [Example 60, 6-(3-(4-fluorophenyl)-1H-pyrazol-4-yl)imidazo[1,2-a]pyridine-3-carboxylic acid] | 0.012 |
| CC(C)c1[nH]nc(-c2ccc(F)cc2)c1-c1ccc2nccn2c1 [Example 69, 6-(3-(4-fluorophenyl)-5-isopropyl-1H-pyrazol-4-yl)imidazo [1,2-a]pyridine] | 0.007 |
| CC(C)c1nn(C)c(-c2ccc(F)cc2)c1-c1ccc2ncc(C(N)=O)n2c1 [Example 71] | 0.145 |
| CC(C)c1nn(C)c(-c2ccc(F)cc2)c1-c1ccc2ncc(C(C)(C)O)n2c1 [Example 73, 2-(6-(5-(4-fluorophenyl)-3-isopropyl-1-methyl-1H-pyrazol-4-yl)imidazo[1,2-a]pyridin-3-yl)propan-2-ol] | 9.86 |
| CC(C)c1c(-c2ccc3ncc(C(C)(C)O)n3c2)c(-c2ccc(F)cc2)nn1C [Example 74, 2-(6-(3-(4-fluorophenyl)-5-isopropyl-1-methyl-1H-pyrazol-4-yl)imidazo[1,2-a]pyridin-3-yl)propan-2-ol] | 0.374 |
| CC(C)c1[nH]nc(-c2ccc(Cl)cc2)c1-c1ccc2ncc(C#N)n2c1 [Example 75, 6-(3-(4-chlorophenyl)-5-isopropyl-1H-pyrazol-4-yl)imidazo[1,2-a]pyridine-3-carbonitrile] | 0.054 |
| CC(C)c1[nH]nc(-c2ccc(Cl)cc2)c1-c1ccc2nccn2c1 [Example 77, 6-(3-(4-chlorophenyl)-5-isopropyl-1H-pyrazol-4-yl)imidazo[1,2-a]pyridine] | 0.144 |

| Compound | IC50 [µM] |
| --- | --- |
| Cc1cc(-c2n[nH]c(C(C)C)c2-c2ccc3nccn3c2)ccc1F [Example 80, 6-(3-(4-fluoro-3-methylphenyl)-5-isopropyl-1H-pyrazol-4-yl)imidazo[1,2-a]pyridine] | 0.001 |
| CCc1[nH]nc(-c2ccc(F)cc2)c1-c1ccc2ncc(C#N)n2c1 [Example 81, 6-(5-ethyl-3-(4-fluorophenyl)-1H-pyrazol-4-yl)imidazo[1,2-a]pyridine-3-carbonitrile] | 0.006 |
| CCc1[nH]nc(-c2ccc(F)cc2)c1-c1ccc2nccn2c1 [Example 83, 6-(5-ethyl-3-(4-fluorophenyl)-1H-pyrazol-4-yl)imidazo[1,2-a]pyridine] | 0.017 |
| CC(C)(O)c1cnc2ccc(-c3c(-c4ccc(F)cc4)n[nH]c3C3CC3)cn12 [Example 89, 2-(6-(5-cyclopropyl-3-(4-fluorophenyl)-1H-pyrazol-4-yl)imidazo[1,2-a]pyridin-3-yl)propan-2-ol] | 0.01 |
| OCc1cnc2ccc(-c3c(-c4ccc(F)cc4)n[nH]c3C3CC3)cn12 [Example 90, (6-(5-cyclopropyl-3-(4-fluorophenyl)-1H-pyrazol-4-yl)imidazo[1,2-a]pyridin-3-yl)methanol] | 0.004 |
| CC(O)c1cnc2ccc(-c3c(-c4ccc(F)cc4)n[nH]c3C3CC3)cn12 (stereo not drawn) [Example 91, 1-(6-(5-cyclopropyl-3-(4-fluorophenyl)-1H-pyrazol-4-yl)imidazo[1,2-a]pyridin-3-yl)ethanol] | 0.008 |
| Cn1nc(C2CC2)c(-c2ccc3ncc(C(N)=O)n3c2)c1-c1ccc(F)cc1 [Example 95, 6-(3-cyclopropyl-5-(4-fluorophenyl)-1-methyl-1H-pyrazol-4-yl)imidazo[1,2-a]pyridine-3-carboxamide] | 0.058 |
| N#Cc1cnc2ccc(-c3c(-c4ccc(Cl)cc4)n[nH]c3C3CC3)cn12 [Example 96, 6-(3-(4-chlorophenyl)-5-cyclopropyl-1H-pyrazol-4-yl)imidazo[1,2-a]pyridine-3-carbonitrile] | 0.07 |
| Clc1ccc(-c2n[nH]c(C3CC3)c2-c2ccc3nccn3c2)cc1 [Example 98, 6-(3-(4-chlorophenyl)-5-cyclopropyl-1H-pyrazol-4-yl)imidazo[1,2-a]pyridine] | 0.05 |
| Cc1cc(-c2n[nH]c(C3CC3)c2-c2ccc3nccn3c2)ccc1F [Example 101, 6-(5-cyclopropyl-3-(4-fluoro-3-methylphenyl)-1H-pyrazol-4-yl)imidazo[1,2-a]pyridine] | 0.001 |
| Fc1ccc(-c2n[nH]c(C3CC3)c2-c2ccc3ncc(F)n3c2)cc1 [Example 102, 6-(5-cyclopropyl-3-(4-fluorophenyl)-1H-pyrazol-4-yl)-3-fluoroimidazo[1,2-a]pyridine] | 0.014 |
| Cn1nc(C2CC2)c(-c2ccc3ncc(F)n3c2)c1-c1ccc(F)cc1 [Example 104, 6-(3-cyclopropyl-5-(4-fluorophenyl)-1-methyl-1H-pyrazol-4-yl)-3-fluoroimidazo[1,2-a]pyridine] | 2.24 |
| N#Cc1cnc2ccc(-c3c(-c4ccc(F)cc4)n[nH]c3C(F)(F)F)cn12 [Example 105, 6-(3-(4-fluorophenyl)-5-(trifluoromethyl)-1H-pyrazol-4-yl)imidazo[1,2-a]pyridine-3-carbonitrile] | 0.041 |
| Fc1ccc(-c2n[nH]c(C(F)(F)F)c2-c2ccc3nccn3c2)cc1 [Example 107, 6-(3-(4-fluorophenyl)-5-(trifluoromethyl)-1H-pyrazol-4-yl)imidazo[1,2-a]pyridine] | 0.147 |
| Cn1nc(-c2ccc(F)cc2)c(-c2ccc3ncc(C(N)=O)n3c2)c1C(F)(F)F [Example 108, 6-(3-(4-fluorophenyl)-1-methyl-5-(trifluoromethyl)-1H-pyrazol-4-yl)imidazo[1,2-a]pyridine-3-carboxamide] | 0.022 |
| Cn1nc(C(F)(F)F)c(-c2ccc3ncc(C(N)=O)n3c2)c1-c1ccc(F)cc1 [Example 109, 6-(5-(4-fluorophenyl)-1-methyl-3-(trifluoromethyl)-1H-pyrazol-4-yl)imidazo[1,2-a]pyridine-3-carboxamide] | 1.13 |
| N#Cc1cnc2ccc(-c3c(-c4ccc(F)cc4)nn4c3COCC4)cn12 [Example 110, 6-(2-(4-fluorophenyl)-6,7-dihydro-4H-pyrazolo[5,1-c][1,4]oxazin-3-yl)imidazo[1,2-a]pyridine-3-carbonitrile] | 0.173 |
| CC(C)(O)c1cnc2ccc(-c3c(-c4ccc(F)cc4)nn4c3COCC4)cn12 [Example 113, 2-(6-(2-(4-fluorophenyl)-6,7-dihydro-4H-pyrazolo[5,1-c][1,4]oxazin-3-yl)imidazo[1,2-a]pyridin-3-yl)propan-2-ol] | 3.81 |
